Calls of active or inactive are those of the source. No cut-off for these calls is given here.
Tests used:
Plasmodium falciparum [1] = assay: Antimalarial activity against chloroquine-resistant Plasmodium falciparum W2 infected in red blood cells after 72 hrs by Malstat reagent based LDH assay; type: functional, cell-based; conditions: W2, 72 h
[2] = Selectivity index, ratio of IC50 for African green monkey Vero cells to IC50 for chloroquine-resistant Plasmodium falciparum W2 infected in red blood cells; type: toxicity, cell-based; conditions: read-out: Ratio IC50
Vero = assay: Cytotoxicity against African green monkey Vero cells assessed as reduction in cell viability up to 10 uM after 48 hrs by neutral red assay; type: cell-based; conditions: chlorocebus sabaeus
Plasmodium falciparum [3] = assay: Antimalarial activity against chloroquine-sensitive Plasmodium falciparum D6 infected in red blood cells after 72 hrs by Malstat reagent based LDH assay; type: functional, cell-based; conditions: D6, 72 h
[4] = Selectivity index, ratio of IC50 for African green monkey Vero cells to IC50 for chloroquine-sensitive Plasmodium falciparum D6 infected in red blood cells; type: toxicity, cell-based; conditions: read-out: Ratio IC50
[5] = Resistance index, ratio of IC50 for Plasmodium falciparum W2 infected in red blood cells to IC50 for Plasmodium falciparum D6 infected in red blood cells; type: functional
Plasmodium falciparum [6] = assay: Antimalarial activity against chloroquine-resistant Plasmodium falciparum W2 infected in red blood cells up to 10 uM after 72 hrs by Malstat reagent based LDH assay; type: functional, cell-based

Row | Compound | IC50 (Plasmodium falciparum [1]) [µM] | selectivity ratio [2] | Activity (Vero) | IC50 (Plasmodium falciparum [3]) [µM] | selectivity ratio [4] | Ratio IC50 [5] | Activity (Plasmodium falciparum [6])
1 | CCN1CCN(c2nc(C)cc(N(CCCNc3ccnc4cc(Cl)ccc34)Cc3ccco3)n2)CC1 | 0.043 | > 233 | Non-Toxic | 0.044 | > 222 | 0.977 | 
2 | CCc1nc(N)nc(N)c1-c1ccc(Cl)cc1 [PYRIMETHAMINE] |  |  | Non-Toxic |  | > 1110 |  | inactive
3 | Cc1cc(N(CCCNc2ccnc3cc(Cl)ccc23)Cc2ccco2)nc(N2CCN(C)CC2)n1 | 0.047 | > 213 | Non-Toxic | 0.045 | > 206 | 1.04 | 
4 | CCN(CC)CCCC(C)Nc1ccnc2cc(Cl)ccc12 (stereo not given) [CHLOROQUINE] |  |  | Non-Toxic |  |  |  | 
5 | CCN1CCN(c2cc(C)nc(N(CCNc3ccnc4cc(Cl)ccc34)Cc3ccco3)n2)CC1 | 0.047 | > 213 | Non-Toxic | 0.042 | > 238 | 1.11 | 
6 | Cc1cc(N2CCCC2)nc(N(CCCNc2ccnc3cc(Cl)ccc23)Cc2ccco2)n1 | 0.162 | > 61.7 | Non-Toxic | 0.051 | > 196 | 3.17 | 
7 | C[C@@H]1CC[C@H]2[C@@H](C)C(=O)O[C@@H]3O[C@@]4(C)CC[C@@H]1[C@]32OO4 [ARTEMISININ] | 0.023 | 435 | Non-Toxic | 0.045 | > 222 | 0.511 | 
8 | Cc1cc(N2CCCCC2)nc(N(CCNc2ccnc3cc(Cl)ccc23)Cc2ccco2)n1 | 0.204 | > 49 | Non-Toxic | 0.044 | > 222 | 4.63 | 
9 | Cc1cc(N(CCNc2ccnc3cc(Cl)ccc23)Cc2ccco2)nc(N2CCCC2)n1 | 0.163 | > 61.3 | Non-Toxic | 0.05 | > 200 | 3.26 | 
10 | Cc1cc(Cl)nc(N(CCNc2ccnc3cc(Cl)ccc23)Cc2ccco2)n1 | 0.062 | > 161 | Non-Toxic | 0.08 | > 125 | 0.775 | 
11 | Cc1cc(N(CCNc2ccnc3cc(Cl)ccc23)Cc2ccco2)nc(N2CCOCC2)n1 | 0.122 | > 82 | Non-Toxic | 0.055 | > 182 | 2.21 | 
12 | Cc1cc(N2CCOCC2)nc(N(CCCNc2ccnc3cc(Cl)ccc23)Cc2ccco2)n1 | 0.167 | > 59.9 | Non-Toxic | 0.053 | > 189 | 3.15 | 
13 | Cc1cc(N(CCNc2ccnc3cc(Cl)ccc23)Cc2ccco2)nc(N2CCN(C)CC2)n1 | 0.041 | > 244 | Non-Toxic | 0.041 | > 244 | 1 | 
